Test results from article PMC8222254, “Self-assembly of an anion receptor with metal-dependent kinase inhibition and potent in vitro anti-cancer properties” (Nature Communications, 2021).

How the values were obtained:
AMPK = target: T1, AMPK (Homo sapiens, UniProt Q13131); assay: ADP-Glo Kinase Assay in presence of varying AMP; format: biochemical
T1 construct: purchased Promega
Description: ATP competition kinase assays were performed by the MRC Protein Phosphorylation and Ubiquitination Unit International Centre for Kinase Profiling (University of Dundee). Inhibition of recombinant human AMPK (α1β2γ1) by 10μM [L2Cu3]^6+ or [L2Zn3]^6+ was evaluated at five different ATP concentrations (0.5, 2, 20, 200 and 500 µM ATP). Substrate competition assays were performed using the ADP-Glo Kinase Assay (Promega) and recombinant human AMPK (α1β2γ1) (Promega) with concentrations of the provided AMPK substrate (SAMStide substrate, Promega) ranging from 1 to 15 mg/ml. Following pre-incubation of substrate with kinase for 5 min 10 µM [L2Cu3]^6+, [L2Zn3]^6+ or solvent control and 50 µM ATP was added to start the kinase reaction. For determination of the effects of AMP on AMPK inhibition by [L2Zn3]^6+, the ADP-Glo Kinase Assay (Promega) was performed in presence of varying of AMP (0, 80, 160 μM).

HCT116 = assay: Metabolic flux analysis (Cell Energy Phenotype Assay, OCR/ECAR); format: cell-based, human; design: Mean Baseline EACR / Baseline EACR / Mean Stressed OCR / Stressed OCR / Mean Stressed EACR / Stressed EACR / Mean Baseline OCR / Baseline OCR: unit not given here; conditions: for Baseline EACR / Baseline OCR / Stressed EACR / Stressed OCR / Mean Baseline EACR / Mean Baseline OCR / Mean Stressed EACR / Mean Stressed OCR: HCT116 cells
Description: (§1) ARPE-19 and HCT116 cells were seeded in 8-well XFp plates (Agilent) 48 h prior to metabolic flux analyses using the Agilent XFp extracellular flux analyser. Cell seeding densities were 2500 cells/well for ARPE-19 cells and 7500 cells/well for HCT116 cells in order to achieve equivalent cell confluency (~70% confluency and in log phase growth) at the time of analyses. Cells were treated with 25 μM of [L2Zn3]^6+ or solvent control (0.2% DMSO) for 1 h or 20 h before metabolic flux analyses using the Cell Energy Phenotype Assay (Agilent) in accordance with the manufacturer’s instructions. For determination of maximal respiratory and glycolytic rates (metabolic reserve) following real-time quantification of basal respiratory and glycolytic rates, a ‘metabolic stress mix’ of 1 µM oligomycin and FCCP (0.5 µM for ARPE-19, 0.25 µM for HCT116) was injected into the media.

ARPE-19 [1] = assay: TSQ cellular localisation / uptake study; format: cell-based, human; conditions: ARPE-19, 25μM, 1 hour
Description: (§2) 48 h following cell seeding in Lumox chamber slides (8-well, Sarstedt), cells (ARPE-19 and HCT116 p53^+/+ were treated for 1 h at 37 °C with 25 μM of [L2Zn3]^6+ or DMSO solvent control before removal and washout three times using complete phenol-red free media. 25 μM TSQ (Enzo Life Sciences) was then added for 30 min for detection of cellular zinc before its washout (three washes) and analyses by confocal microscopy (Zeiss LSM880).

HCT116 p53+/+ = assay: TSQ cellular localisation / uptake study; format: cell-based, human; conditions: 25μM, 1 hour
Description: as §2

ARPE-19 [2] = assay: Metabolic flux analysis (Cell Energy Phenotype Assay, OCR/ECAR); format: cell-based, human; design: Baseline EACR / Mean Baseline EACR / Stressed OCR / Mean Stressed OCR / Stressed EACR / Mean Stressed EACR / Baseline OCR / Mean Baseline OCR: unit not given here; conditions: for Baseline EACR / Baseline OCR / Stressed EACR / Stressed OCR / Mean Baseline EACR / Mean Baseline OCR / Mean Stressed EACR / Mean Stressed OCR: ARPE19 cells
Description: as §1

[3] = target: 140 purified human kinases (Rattus norvegicus, UniProt Q62868); assay: Kinase inhibition screen, cell-free 33P ATP assay at 10 μM; format: biochemical
Method in brief: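 Radiometric ^33P ATP cell-free format with purified enzymes; both complexes run at 10 μM in duplicate, results plotted on a kinome map via HGNC symbols.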

[4] = 1h exposure, mean of 3 runs (Fig. 9c)
[5] = 20h exposure, mean of 3 runs (Fig. 9d)

Sequence of 140 purified human kinases (Q62868 whole entry): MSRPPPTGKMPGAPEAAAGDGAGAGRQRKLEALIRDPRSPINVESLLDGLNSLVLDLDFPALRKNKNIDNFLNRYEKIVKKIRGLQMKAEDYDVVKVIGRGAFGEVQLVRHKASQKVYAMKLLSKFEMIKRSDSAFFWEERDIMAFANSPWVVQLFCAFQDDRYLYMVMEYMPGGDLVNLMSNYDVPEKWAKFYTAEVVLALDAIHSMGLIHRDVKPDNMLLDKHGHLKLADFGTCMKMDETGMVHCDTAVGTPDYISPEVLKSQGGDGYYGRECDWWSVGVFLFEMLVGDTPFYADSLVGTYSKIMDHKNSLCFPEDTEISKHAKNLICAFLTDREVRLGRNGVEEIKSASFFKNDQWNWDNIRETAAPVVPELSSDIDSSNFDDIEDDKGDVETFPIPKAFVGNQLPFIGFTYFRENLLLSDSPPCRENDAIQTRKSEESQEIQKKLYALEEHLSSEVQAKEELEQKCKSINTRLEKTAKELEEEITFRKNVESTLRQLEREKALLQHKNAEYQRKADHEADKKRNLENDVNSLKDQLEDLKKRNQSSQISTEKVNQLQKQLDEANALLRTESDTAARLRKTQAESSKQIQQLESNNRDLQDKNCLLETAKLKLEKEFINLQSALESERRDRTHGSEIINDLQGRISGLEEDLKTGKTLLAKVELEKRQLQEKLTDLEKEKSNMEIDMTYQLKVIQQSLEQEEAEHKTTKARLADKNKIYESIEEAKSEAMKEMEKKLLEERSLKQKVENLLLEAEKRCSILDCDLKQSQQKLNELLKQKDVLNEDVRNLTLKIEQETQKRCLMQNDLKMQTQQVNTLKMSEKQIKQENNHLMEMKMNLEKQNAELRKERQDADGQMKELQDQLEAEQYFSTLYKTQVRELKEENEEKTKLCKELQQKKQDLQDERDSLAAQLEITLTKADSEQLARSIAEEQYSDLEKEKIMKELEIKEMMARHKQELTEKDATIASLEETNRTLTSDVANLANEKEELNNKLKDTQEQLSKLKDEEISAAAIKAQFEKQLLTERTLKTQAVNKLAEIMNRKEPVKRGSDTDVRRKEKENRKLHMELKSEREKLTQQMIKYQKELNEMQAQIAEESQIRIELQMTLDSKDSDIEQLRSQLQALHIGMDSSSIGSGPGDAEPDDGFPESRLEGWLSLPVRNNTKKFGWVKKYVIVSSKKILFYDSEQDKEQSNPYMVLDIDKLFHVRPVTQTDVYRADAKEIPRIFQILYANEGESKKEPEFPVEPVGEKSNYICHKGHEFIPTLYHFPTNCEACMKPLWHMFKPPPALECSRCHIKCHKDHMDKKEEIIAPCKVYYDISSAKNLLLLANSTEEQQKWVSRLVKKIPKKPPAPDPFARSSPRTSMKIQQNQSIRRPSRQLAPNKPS
T1 sequence (Q13131 whole entry): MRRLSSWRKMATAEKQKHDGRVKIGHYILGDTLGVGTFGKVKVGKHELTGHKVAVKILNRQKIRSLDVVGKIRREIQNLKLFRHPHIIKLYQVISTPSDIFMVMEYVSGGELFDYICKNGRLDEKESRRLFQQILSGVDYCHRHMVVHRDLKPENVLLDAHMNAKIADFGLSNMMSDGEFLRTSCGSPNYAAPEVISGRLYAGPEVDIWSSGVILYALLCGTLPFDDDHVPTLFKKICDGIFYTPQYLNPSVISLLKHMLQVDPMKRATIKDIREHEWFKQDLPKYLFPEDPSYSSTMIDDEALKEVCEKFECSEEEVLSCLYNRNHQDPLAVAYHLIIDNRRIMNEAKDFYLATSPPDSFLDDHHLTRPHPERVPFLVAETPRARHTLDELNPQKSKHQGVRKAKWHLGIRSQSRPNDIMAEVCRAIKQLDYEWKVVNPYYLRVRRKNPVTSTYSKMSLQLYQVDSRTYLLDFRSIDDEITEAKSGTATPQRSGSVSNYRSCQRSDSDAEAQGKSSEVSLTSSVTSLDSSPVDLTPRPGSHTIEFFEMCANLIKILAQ
T1 sequence (O43741 whole entry partner): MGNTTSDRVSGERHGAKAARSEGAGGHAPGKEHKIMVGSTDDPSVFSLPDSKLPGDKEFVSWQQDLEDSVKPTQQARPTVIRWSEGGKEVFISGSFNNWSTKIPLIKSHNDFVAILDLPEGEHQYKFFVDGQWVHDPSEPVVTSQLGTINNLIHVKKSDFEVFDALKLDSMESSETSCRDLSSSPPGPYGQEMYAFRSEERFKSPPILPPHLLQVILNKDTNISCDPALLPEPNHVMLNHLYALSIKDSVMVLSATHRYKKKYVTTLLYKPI
T1 sequence (P54619 whole entry partner): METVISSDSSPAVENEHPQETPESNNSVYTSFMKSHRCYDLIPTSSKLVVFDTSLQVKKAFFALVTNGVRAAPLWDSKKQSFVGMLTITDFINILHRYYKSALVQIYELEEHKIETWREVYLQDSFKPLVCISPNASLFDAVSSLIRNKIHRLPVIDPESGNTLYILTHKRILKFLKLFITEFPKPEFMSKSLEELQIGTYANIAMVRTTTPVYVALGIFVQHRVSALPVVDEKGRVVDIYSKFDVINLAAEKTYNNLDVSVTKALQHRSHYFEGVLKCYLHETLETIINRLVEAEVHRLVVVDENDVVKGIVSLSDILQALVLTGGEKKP

## CC(=O)[O-].CC(=O)[O-].CC(=O)[O-].CC(=O)[O-].CC(=O)[O-].CC(=O)[O-].[Zn+2].[Zn+2].[Zn+2].c1ccc(-c2csc(NCCN(CCNc3nc(-c4ccccn4)cs3)CCNc3nc(-c4ccccn4)cs3)n2)nc1.c1ccc(-c2csc(NCCN(CCNc3nc(-c4ccccn4)cs3)CCNc3nc(-c4ccccn4)cs3)n2)nc1 [[L2Zn3]6+]
AMPK; in the absence of AMP
  AMPK activity remaining: ~ 30%
AMPK; in the presence of AMP (80 or 160 microM)
  AMPK activity remaining: 20-30%
HCT116; HCT116, 25 μM, 1 h
  glycolysis (ECAR): modest selective decrease
HCT116; HCT116, 25 μM, 20 h
  mitochondrial respiration and glycolysis: substantially impaired
HCT116; 1h exposure, Run 1 (Fig. 9c)
  Baseline EACR: 36.12
  Baseline OCR: 98.34
  Stressed EACR: 50.32
  Stressed OCR: 147.22
HCT116; 1h exposure, Run 2 (Fig. 9c)
  Baseline EACR: 27.29
  Baseline OCR: 76.52
  Stressed EACR: 37.11
  Stressed OCR: 109.94
HCT116; 1h exposure, Run 3 (Fig. 9c)
  Baseline EACR: 34.53
  Baseline OCR: 90.56
  Stressed EACR: 47.29
  Stressed OCR: 132.49
HCT116; [4]
  Mean Baseline EACR: 32.65
  Mean Baseline OCR: 88.47
  Mean Stressed EACR: 44.91
  Mean Stressed OCR: 129.88
HCT116; 20h exposure, Run 1 (Fig. 9d)
  Baseline EACR: 24.12
  Baseline OCR: 21.60
  Stressed EACR: 29.60
  Stressed OCR: 20.79
HCT116; 20h exposure, Run 2 (Fig. 9d)
  Baseline EACR: 26.59
  Baseline OCR: 20.38
  Stressed EACR: 33.07
  Stressed OCR: 21.88
HCT116; 20h exposure, Run 3 (Fig. 9d)
  Baseline EACR: 25.54
  Baseline OCR: 19.42
  Stressed EACR: 31.03
  Stressed OCR: 19.19
HCT116; [5]
  Mean Baseline EACR: 25.41
  Mean Baseline OCR: 20.47
  Mean Stressed EACR: 31.23
  Mean Stressed OCR: 20.62
ARPE-19 [1]
  cellular uptake (TSQ fluorescent signal): increase in TSQ fluorescent signal
HCT116 p53+/+
  cellular uptake (TSQ fluorescent signal): increase in TSQ fluorescent signal
ARPE-19 [2]; 1h exposure, Run 1 (Fig. 9c)
  Baseline EACR: 18.76
  Baseline OCR: 23.36
  Stressed EACR: 24.63
  Stressed OCR: 30.28
ARPE-19 [2]; 1h exposure, Run 2 (Fig. 9c)
  Baseline EACR: 18.49
  Baseline OCR: 21.88
  Stressed EACR: 25.17
  Stressed OCR: 27.97
ARPE-19 [2]; 1h exposure, Run 3 (Fig. 9c)
  Baseline EACR: 18.70
  Baseline OCR: 20.12
  Stressed EACR: 24.11
  Stressed OCR: 25.60
ARPE-19 [2]; [4]
  Mean Baseline EACR: 18.65
  Mean Baseline OCR: 21.79
  Mean Stressed EACR: 24.64
  Mean Stressed OCR: 27.95
ARPE-19 [2]; 20h exposure, Run 1 (Fig. 9d)
  Baseline EACR: 13.57
  Baseline OCR: 9.08
  Stressed EACR: 15.01
  Stressed OCR: 12.02
ARPE-19 [2]; 20h exposure, Run 2 (Fig. 9d)
  Baseline EACR: 10.60
  Baseline OCR: 7.37
  Stressed EACR: 11.55
  Stressed OCR: 9.95
ARPE-19 [2]; 20h exposure, Run 3 (Fig. 9d)
  Baseline EACR: 12.23
  Baseline OCR: 7.73
  Stressed EACR: 13.58
  Stressed OCR: 9.28
ARPE-19 [2]; [5]
  Mean Baseline EACR: 12.13
  Mean Baseline OCR: 8.06
  Mean Stressed EACR: 13.38
  Mean Stressed OCR: 10.41
ARPE-19 [2]; ARPE-19, 25 μM, 1 h
  glycolysis (ECAR): unaffected

## [Cu+2].[Cu+2].[Cu+2].c1ccc(-c2csc(NCCN(CCNc3nc(-c4ccccn4)cs3)CCNc3nc(-c4ccccn4)cs3)n2)nc1.c1ccc(-c2csc(NCCN(CCNc3nc(-c4ccccn4)cs3)CCNc3nc(-c4ccccn4)cs3)n2)nc1 [[L2Cu3]6+]
[3]; ROCK 2, Run 1
  % activity: 16.5%
[3]; ROCK 2, Run 2
  % activity: 22.5%
